According to US7476729B2, “Dbait and uses thereof” (Institut Curie, priority 2003, dated 2009):

Key:
Ku complex = biological target: T1, Ku complex (Homo sapiens, UniProt P12956+P13010); assay: Band-shift assay with Hep2 nuclear protein extracts; assay type: binding; conditions: for binding of Ku: Hep2 nuclear extract, band-shift; for retarded bands in band-shift assay: 10 nM 32P radio-labelled Dbait, 0-320 ng/μL Hep2 nuclear proteins, 30° C., 10 minutes
T1 construct: in the presence of nuclear protein extracts from Hep2 cells according to standard protocol; endogenous in cells; host or cells: Hep2 cells (nuclear protein extract)
T1 sequence (P12956 whole entry): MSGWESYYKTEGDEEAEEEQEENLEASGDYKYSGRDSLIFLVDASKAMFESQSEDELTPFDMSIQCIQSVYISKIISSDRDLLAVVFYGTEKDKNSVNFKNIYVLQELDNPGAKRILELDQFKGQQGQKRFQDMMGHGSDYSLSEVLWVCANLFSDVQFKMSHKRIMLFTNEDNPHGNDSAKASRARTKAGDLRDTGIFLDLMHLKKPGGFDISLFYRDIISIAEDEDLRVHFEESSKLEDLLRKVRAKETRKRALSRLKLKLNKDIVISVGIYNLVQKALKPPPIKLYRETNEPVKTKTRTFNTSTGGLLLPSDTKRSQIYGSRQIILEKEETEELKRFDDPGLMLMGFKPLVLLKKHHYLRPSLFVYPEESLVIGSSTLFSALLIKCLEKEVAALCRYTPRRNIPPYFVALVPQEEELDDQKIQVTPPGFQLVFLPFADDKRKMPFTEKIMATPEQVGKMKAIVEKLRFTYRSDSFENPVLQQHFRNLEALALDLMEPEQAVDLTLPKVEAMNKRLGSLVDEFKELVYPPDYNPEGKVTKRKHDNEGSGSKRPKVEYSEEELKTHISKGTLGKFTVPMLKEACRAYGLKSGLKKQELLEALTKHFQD
T1 sequence (P13010 whole entry): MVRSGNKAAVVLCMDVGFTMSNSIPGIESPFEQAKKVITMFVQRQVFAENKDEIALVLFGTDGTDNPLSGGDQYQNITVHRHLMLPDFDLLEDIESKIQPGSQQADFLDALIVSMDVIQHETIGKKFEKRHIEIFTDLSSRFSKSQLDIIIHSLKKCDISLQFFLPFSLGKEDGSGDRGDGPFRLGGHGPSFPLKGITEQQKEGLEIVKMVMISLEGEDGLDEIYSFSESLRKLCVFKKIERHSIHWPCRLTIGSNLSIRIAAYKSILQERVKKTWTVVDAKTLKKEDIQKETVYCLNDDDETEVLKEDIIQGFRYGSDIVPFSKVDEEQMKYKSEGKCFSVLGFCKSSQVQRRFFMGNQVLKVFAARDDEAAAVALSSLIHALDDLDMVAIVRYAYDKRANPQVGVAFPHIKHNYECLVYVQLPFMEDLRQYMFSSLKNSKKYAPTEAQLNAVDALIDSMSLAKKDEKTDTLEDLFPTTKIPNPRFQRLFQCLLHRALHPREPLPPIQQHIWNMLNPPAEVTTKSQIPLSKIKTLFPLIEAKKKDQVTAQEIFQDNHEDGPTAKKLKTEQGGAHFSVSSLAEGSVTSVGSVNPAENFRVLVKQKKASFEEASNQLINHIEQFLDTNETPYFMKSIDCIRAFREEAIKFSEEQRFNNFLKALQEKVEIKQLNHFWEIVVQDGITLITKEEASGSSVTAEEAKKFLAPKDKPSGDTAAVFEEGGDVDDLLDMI
Procedure: As the first step to dissect the mechanism of action of Dbait molecules, a series of band-shift assays were carried out with different ^32P radio-labelled Dbait molecules in the presence of nuclear protein extracts from Hep2 cells according to standard protocol. Typically, 10 nM ^32P radio-labelled Dbait molecules were incubated in the presence of various concentrations of nuclear proteins (0, 10, 20, 40, 80, 160, and 320 ng/μL) at 30° C. for 10 minutes in TBE buffer. Then the samples were loaded on a 5% acrylamide native gel. The electrophoresis was run at 95V for 2 hours at 4° C. The gel was dried and scanned by phosphorimager (Molecular Dynamics).
For 32-bp Dbait molecules, the intensity of the retarded band 1 increases and then decreases as the concentration of protein increases, while the intensity of the retarded band 2 increases as a function of the concentration of nuclear protein extracts.
It is likely that band 1 has one Ku70/80 complex bound to the 16 to 32-bp Dbait, whereas the band 2 has two Ku70/80 complexes bound to the 32-bp Dbait molecules. Control experiments performed with purified Ku proteins confirmed this interpretation.

[1] = system: p53 serine 15 phosphorylation in GMA32 cells; assay: Western blot of p53 serine 15 phosphorylation in GMA32 cells; assay type: cell-based, Chinese hamster; conditions: GMA32, Dbait with lipofectamine, no irradiation or mitotic inhibitor
Procedure: Further experiment was carried out in order to look for evidence of DNA damage signaling. The protein p53 is a well known major protein in mediating DNA damage signaling and in coordinating appropriate responses (DNA repair, apoptosis, etc.) by changing its phosphorylation status. In particular, the phosphorylation of serine 15 residue is involved in the interaction with MDM2 protein which acts as a feed back control Thus, the phosphorylation status of the serine 15 of p53 was assessed by Western blot.
For Western blot analysis, cells were lysed in Laemmli buffer. Equal amounts of lysates were resolved in 12% polyacrylamide gels. Proteins were transferred to nitrocellulose membranes, which were blocked with 5% nonfat milk (1 hour) before overnight incubation with anti-p53Ser15 antibody (9284, Cell Signaling) diluted 500 folds in TBST buffer (10 mM Tris-HCl pH7.5, 150 mM NaCl, 0.1% Tween 20) containing 5% nonfat milk. Blots were then incubated with horseradish peroxidase-conjugated goat anti-rabbit IgG secondary antibodies (P0448, Dako) diluted 1/5000 in TBST. Protein-antibody complexes were detected by enhanced chemiluminescence (RPN2106 ECL, Amersham).

[2] = system: radiation-enhanced illegitimate integration of a plasmid in Hela cells; assay: Inhibition of radiation-enhanced illegitimate integration of exogenous DNA; assay type: cell-based, human; conditions: for radiation-enhanced illegitimate integration of plasmid (puromycin resistance): 2 μg Dbait, fractionated 4×0.5 Gy irradiation
Procedure: Exponentially growing cells in six-well plates were harvested and incubated with […] of complete DMEM containing a mixture of Dbait molecules and Superfect reagent (Qiagen, Courtaboeuf, France) in a ratio of 10 μl Superfect per μg DNA. After 5 h at 37° C. under standard conditions, the cells were washed with PBS and complete DMEM was added. Where indicated, cells were exposed to irradiation either in one session (10 Gy) 5 h after the beginning of transfection or in four sessions of 0.5 Gy administered with a ^137Cs unit (1 Gy/min) 3, 4, 5 and 6 h after the beginning of transfection and allowed to grow for two weeks. When plasmid integration was measured, 2 μg of plasmid was added to Dbait transfection and puromycin (1.7 μg/ml) was added to the growth medium 48 h after transfection. Plasmid transfection efficiency was estimated by analyzing 10,000 cells for GFP expression on a FACScan flow cytometer (FACSalibur, Beckton-Dickinson, USA).
Ionizing radiation is known to improve illegitimate integration of exogenous DNA, a process termed radiation-enhanced integration. Hela cell culture was used for this assay. Cells were transfected during 8 hours by 2 μg of a linear plasmid carrying the gene coding for neomycin resistance, and three different ratio of DNA/superfect (1:2, 1:5, 1:10). During transfection time, the cells were exposed to different irradiation protocols: no irradiation, one single irradiation of 1 Gy and 2 Gy, as well as a 2 Gy irradiation delivered by fractionated doses of 0.5 Gy every 2 hours (4×0.5 Gy). The integration of the plasmid was monitored by selection of Neo^R cells growing in a medium containing 0.6 mg/ml of G418. […] When 2 μg of Dbait32H (SEQ ID NO: 1) molecules were added to the transfection mix, the radiation-enhanced integration was abolished (FIG. 2.3).
Wortmann (Wort) and NU7026 (NU) which are known inhibitors of PI3K (including DNA-PK) were used as control.

[3] = system: DNA end-joining reaction in the nuclear extracts of Hep2 cells; assay: DNA end-joining assay in Hep2 nuclear extract; assay type: biochemical, human; conditions: for ligation of DNA fragments in cell-free assay: 2 h incubation with various Dbait
Procedure: DNA end-joining was monitored by incubating ^32P-labeled 605-bp linear DNA fragments with Hep2 nuclear extract in the presence of various Dbait molecules. Ligation products migrate as dimers, trimers or tetramers, starting 605 bp monomer.
Approximately 16% of the ^32P-labeled blunt linear duplex DNA molecules were ligated into dimers and trimers during the first 2 h of incubation. The amount of high molecular weight ligation products increased up to 30% of the total input DNA after 16 h. […] In most experiments, Dbait32H (SEQ ID NO: 1) was added simultaneously with the labeled DNA fragments to the nuclear extract.
Various Dbait molecules were tested for their effect on the cell-free assay by adding the molecules to nuclear extract and incubating for 2 h with the DNA fragments.
DNA-PK activity was monitored using the kit SignaTECT DNA-dependent Protein Kinase Assay System (Promega, Madison, USA). Increasing amounts of Hep2 nuclear extract (cleaned of endogenous DNA by DEAE-Sepharose filtration) were assayed in the presence of 250 nM Dbait. Extract, biotinylated peptide substrate and various amount of nuclear extract were incubated 5 minutes at 30° C. with (γ-^32P)ATP according to manufacturer indications. The biotinylated substrate was capture on streptavidine membrane, washed and counted in a scintillation counter. Percentage of phosphorylation is calculated by dividing the bound radioactivity by the total count of (γ-^32P)ATP per sample. Reactions (10 μl) were carried out in 60 mM KOAc, 100 μg/ml BSA, 0.5 mM Mg(Cl)2, 1 μl T4 DNA ligase 10× buffer (Promega, Madison, USA). Nuclear extract and Dbait were incubated 2 minutes before addition of ^32P-labeled DNA (10 ng). Samples were incubated various time at 37° C. before ligation being stopped by 20 mM EDTA and 1 mg/ml Proteinase K addition. Ligation products were analyzed by electrophoresis through 0.7% agarose gels followed by autoradiography and quantification by phosphorimaging.

| Substance | binding of Ku (Ku complex) | phosphorylation of p53 serine 15 [1] | radiation-enhanced illegitimate integration of plasmid (puromycin resistance) [2] | ligation of DNA fragments in cell-free assay [3] | retarded bands in band-shift assay (Ku complex) | radiation-enhanced integration of linear plasmid (neomycin resistance) ([2]; Hela, 2 μg Dbait added to transfection mix, 4×0.5 Gy) | DNA end-joining (ligation) ([3]; Dbait added 30 min after the nuclear extract (data not shown)) | DNA end-joining (ligation of 32P-labeled linear DNA fragments) ([3]; Dbait added simultaneously with fragments, 100-fold molar excess) | DNA end-joining (ligation) ([3]; Dbait incubated with the extract for 30 min before addition of fragments) |
| --- | --- | --- | --- | --- | --- | --- | --- | --- | --- |
| Dbait8H: hairpin double strand DNA with a stem of 8-bp (DNA ACGCACGG; DNA, backbone not given here; hairpin, hexaethyleneglycol loop, 3-bp phosphorothioate at free blunt end) | dID NO:t bind Ku | Neither the shortest Dbait8H (SEQ ID NO: 4) nor single strand Dbaut32ss (SEQ ID NO: 1) molecules were able to induced significant phosphorylation | not effective | largely unaffected |  |  |  |  |  |
| Dbait16H: hairpin double strand DNA with a stem of 16-bp (DNA ACGCACGGGTGTTGGG; DNA, backbone not given here; hairpin DNA with hexaethyleneglycol loop, 3-bp phosphorothioate at free blunt end) | bound only one Ku dimer | moderate phosphorylation | not effective | inhibited the ligation as efficiently as Dbait32H | One retarded band |  |  |  |  |
| Dbait32H: hairpin double strand DNA with a stem of 32-bp, hexaethyleneglycol linker, phosphorothioate at the free blunt end (DNA ACGCACGGGTGTTGGGTCGTTTGTTCGGATCT; DNA, backbone not given here; hairpin, hexaethyleneglycol loop, 3-bp phosphorothioate at free blunt end) |  | highly phosphorylated | capable of inhibiting |  | two retarded band | abolished | no inhibition of the ligation | strongly inhibited | extent of inhibition was similar |
| Dbait32ss: 32-nt single strand DNA (SEQ ID NO: 1) (DNA ACGCACGGGTGTTGGGTCGTTTGTTCGGATCT; DNA, backbone not given here) |  | Neither the shortest Dbait8H (SEQ ID NO: 4) nor single strand Dbaut32ss (SEQ ID NO: 1) molecules were able to induced significant phosphorylation | not effective | largely unaffected |  |  |  |  |  |
